The target in this assay is T1, GCN2 (Homo sapiens, UniProt Q9P2K8).
T1 construct: gene EIF2AK4; recombinant human GCN2, N-terminal twin StrepII tag, expressed in Sf9 cells
The experiment in a line: ADP-Glo kinase assay with purified GCN2 (biphasic: activation EC50 […], inhibition IC50 […]); supported by thermal unfolding (-2.[…] °C shift) and in vitro autophosphorylation. Type of assay: biochemical. Background: In ADP-Glo the light output rises with the ADP produced.

The EC50 is the concentration needed to bring the measured effect to its halfway point.

T1 sequence (Q9P2K8 whole entry): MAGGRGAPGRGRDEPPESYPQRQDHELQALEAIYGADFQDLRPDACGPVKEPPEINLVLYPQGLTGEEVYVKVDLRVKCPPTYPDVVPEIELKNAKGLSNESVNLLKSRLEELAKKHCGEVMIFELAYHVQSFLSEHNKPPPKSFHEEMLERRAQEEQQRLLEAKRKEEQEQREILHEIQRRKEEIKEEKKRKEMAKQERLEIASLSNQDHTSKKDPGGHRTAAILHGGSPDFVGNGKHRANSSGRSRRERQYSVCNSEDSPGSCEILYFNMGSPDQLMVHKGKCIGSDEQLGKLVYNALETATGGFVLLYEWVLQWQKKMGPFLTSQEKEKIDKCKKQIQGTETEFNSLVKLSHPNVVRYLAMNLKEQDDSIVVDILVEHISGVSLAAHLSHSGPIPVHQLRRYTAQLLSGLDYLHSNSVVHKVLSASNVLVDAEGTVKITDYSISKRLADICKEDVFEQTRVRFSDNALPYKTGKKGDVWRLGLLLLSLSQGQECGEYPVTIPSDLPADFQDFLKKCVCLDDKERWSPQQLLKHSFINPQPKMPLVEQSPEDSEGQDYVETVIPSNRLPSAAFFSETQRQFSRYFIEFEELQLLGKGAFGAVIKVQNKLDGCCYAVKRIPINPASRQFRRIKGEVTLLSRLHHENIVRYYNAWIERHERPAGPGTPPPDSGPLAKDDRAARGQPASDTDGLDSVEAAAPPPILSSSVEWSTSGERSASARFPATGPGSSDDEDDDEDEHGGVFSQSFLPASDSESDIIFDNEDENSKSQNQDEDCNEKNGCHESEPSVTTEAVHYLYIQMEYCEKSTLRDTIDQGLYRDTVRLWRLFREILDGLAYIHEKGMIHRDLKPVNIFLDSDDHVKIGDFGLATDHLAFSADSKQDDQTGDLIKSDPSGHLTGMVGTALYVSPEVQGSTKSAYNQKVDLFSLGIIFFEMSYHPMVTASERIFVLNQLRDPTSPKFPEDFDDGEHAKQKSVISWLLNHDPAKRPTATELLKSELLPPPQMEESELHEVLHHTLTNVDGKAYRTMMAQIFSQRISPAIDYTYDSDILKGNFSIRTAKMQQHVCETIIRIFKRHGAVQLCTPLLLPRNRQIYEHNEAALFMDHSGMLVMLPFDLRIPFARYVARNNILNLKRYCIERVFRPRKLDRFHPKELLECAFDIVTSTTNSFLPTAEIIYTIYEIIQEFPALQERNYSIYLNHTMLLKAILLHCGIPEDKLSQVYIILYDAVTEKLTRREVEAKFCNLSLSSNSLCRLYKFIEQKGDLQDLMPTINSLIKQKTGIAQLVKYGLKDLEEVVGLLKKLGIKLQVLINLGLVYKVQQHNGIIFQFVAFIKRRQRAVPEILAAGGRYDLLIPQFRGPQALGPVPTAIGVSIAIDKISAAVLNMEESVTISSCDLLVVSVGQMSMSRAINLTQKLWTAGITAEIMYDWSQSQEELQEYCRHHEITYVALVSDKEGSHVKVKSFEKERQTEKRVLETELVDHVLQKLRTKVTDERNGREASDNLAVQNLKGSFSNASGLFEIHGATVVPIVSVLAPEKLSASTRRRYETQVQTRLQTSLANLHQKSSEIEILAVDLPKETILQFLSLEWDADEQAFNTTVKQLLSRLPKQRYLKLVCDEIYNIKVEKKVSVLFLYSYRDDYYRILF

As for `C=CCn1c(=O)c2cnc(Nc3ccc(N4CCN(C)CC4)cc3)nc2n1-c1cccc(C(C)(C)O)n1` [AZD1775], the EC50 is 16 nM.

Values taken from publication PMC12511557, “WEE1 inhibitors synergise with mRNA translation defects via activation of the kinase GCN2” (Nature Communications, 2025).
